Values of other authors in patent publication US20120171125A1, “Methods for Enhancing the Cognitive Function” (UCB PHARMA, S.A., priority 2009, published 2012).

Columns and labels:
epilepsy = conditions: in vivo
SV2A = SV2A (Homo sapiens, UniProt Q7L0J3)
cognitive function = conditions: animals and humans

Chain of SV2A (Q7L0J3 whole entry, species assumed): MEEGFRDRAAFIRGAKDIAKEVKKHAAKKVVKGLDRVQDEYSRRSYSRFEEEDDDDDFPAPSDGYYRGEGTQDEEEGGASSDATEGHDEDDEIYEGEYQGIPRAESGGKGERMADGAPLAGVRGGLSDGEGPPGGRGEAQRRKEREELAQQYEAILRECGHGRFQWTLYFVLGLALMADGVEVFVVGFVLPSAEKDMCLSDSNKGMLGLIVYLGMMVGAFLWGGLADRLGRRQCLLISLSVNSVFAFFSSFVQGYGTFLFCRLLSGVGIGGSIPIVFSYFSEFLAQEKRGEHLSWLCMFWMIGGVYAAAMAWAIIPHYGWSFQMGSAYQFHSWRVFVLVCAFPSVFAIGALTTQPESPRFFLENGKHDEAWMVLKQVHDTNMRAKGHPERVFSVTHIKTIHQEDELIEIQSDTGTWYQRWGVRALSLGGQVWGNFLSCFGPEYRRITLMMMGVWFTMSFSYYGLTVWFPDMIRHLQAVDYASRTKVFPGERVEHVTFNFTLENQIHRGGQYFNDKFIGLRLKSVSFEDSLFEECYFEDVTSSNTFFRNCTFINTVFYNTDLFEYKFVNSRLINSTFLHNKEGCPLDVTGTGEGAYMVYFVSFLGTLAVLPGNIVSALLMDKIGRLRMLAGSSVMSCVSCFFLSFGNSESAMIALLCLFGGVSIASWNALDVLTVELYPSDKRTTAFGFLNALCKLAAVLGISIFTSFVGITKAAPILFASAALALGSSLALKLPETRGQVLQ

Structure (SMILES)	antiepileptic activity (epilepsy)	affinity / binding to SV2A (SV2A)	impact on the cognitive function (cognitive function)
CC[C@H](C(N)=O)N1CCCC1=O [(R)-(+)-alpha-ethyl-2-oxo-1-pyrrolidine acetamide]	completely lacks activity		
NC(=O)CN1CCCC1=O [piracetam]		does not bind to SV2A	
CCC[C@@H]1CC(=O)N([C@@H](CC)C(N)=O)C1 [brivaracetam, (2S)-2-[(4R)-2-oxo-4-propyl-pyrrolidin-1-yl]butanamide]	very potent antiepileptic activities	potent affinity to SV2A	
CC[C@@H](C(N)=O)N1C[C@H](C=C(F)F)CC1=O [Seletracetam, (2S)-2-[(4S)-4-(2,2-difluorovinyl)-2-oxo-pyrrolidinyl]butanamide]	very potent antiepileptic activities	potent affinity to SV2A	
CC[C@@H](C(N)=O)N1CCCC1=O [levetiracetam, (S)-(−)-alpha-ethyl-2-oxo-1-pyrrolidine acetamide]			no impact on the cognitive function
